From US20220282217A1, “COMPOSITIONS AND METHODS FOR PREPARING T CELL COMPOSITIONS AND USES THEREOF” (priority 2019, published 2022)
Like-named read-outs stand apart in the source and are kept apart here. Where a SMILES comes first, the peptide text is derived from it.

Experiments:
HLA-A01.01 = HLA-A01.01 (Homo sapiens, UniProt P04439, A114D/A174V/A182V/D101N/D185E/E176A/E190D/L180R/Q94H/R68K/S129P/T187R/V100A/V91M/W191G); assay: Class I MHC peptide binding affinity (displacement of radiolabeled reference peptide)
Method in brief: (§1)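 Read-out: radioactivity of reference peptide retained on MHCI, separated from free label by gel-filtration size exclusion. Competing peptides are titrated against the preformed complexes and incubated two days beforehand.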

HLA-A02.01 [1] = target: HLA-A02.01 (Homo sapiens, UniProt P04439, D140Y/D185E/D98H/E176V/E277Q/G131W/G231S/I119V/I121R/I166T/I218V/L300P/L318F/N151K/N90K/P208A/P217A/Q86G/Q94H/R138H/R169H/T345S); assay: as above
Method in brief: as §1

HLA-B07.02 = HLA-B07.02 (Homo sapiens, UniProt P01889); assay: as above
HLA-A02.01 [2] = target: T1, HLA-A02.01 (Homo sapiens, UniProt P04439, D140Y/D185E/D98H/E176V/E277Q/G131W/G231S/I119V/I121R/I166T/I218V/N151K/N90K/P208A/P217A/Q86G/Q94H/R138H/R169H); assay: Class I MHC peptide binding stability (pMHC-I dissociation, 125I-labeled light chain); conditions: for Stability (T1/2 (h)): allele A02.01
T1 construct: made in house; host or cells: E. coli

[3] = Observed Affinity (IC50, (nM)), allele A01.01
[4] = allele A01.01, read-out: Observed Affinity (IC50, (nM))
[5] = allele A02.01, read-out: Observed Affinity (IC50, (nM))
[6] = Allele B07.02, read-out: Observed Affinity (IC50, (nM))

## CC[C@H](C)[C@H](NC(=O)[C@H](CC(C)C)NC(=O)[C@H](CCC(N)=O)NC(=O)[C@@H](NC(=O)[C@@H](NC(=O)[C@H](CO)NC(=O)[C@@H](NC(=O)[C@H](CC(C)C)NC(=O)[C@@H](N)CS)[C@@H](C)O)[C@@H](C)O)C(C)C)C(=O)N[C@@H](CCSC)C(=O)O
HLA-A01.01
  Kd: 8280 nM
HLA-A01.01; [3]
  IC50: 11000 nM
HLA-A02.01 [1]
  Kd: 537 nM
HLA-A02.01 [1]; Observed Affinity (IC50, (nM)), allele A02.01
  IC50: 716 nM

## CC(C)[C@H](NC(=O)[C@H](CCC(=O)O)NC(=O)[C@H](CC(N)=O)NC(=O)[C@H](CO)NC(=O)CNC(=O)[C@@H](N)[C@@H](C)O)C(=O)N[C@H](C(=O)N[C@H](C(=O)N[C@@H](CCCNC(=N)N)C(=O)N[C@@H](Cc1ccc(O)cc1)C(=O)O)[C@@H](C)O)[C@@H](C)O (H-TGSNEVTTRY-OH; N-terminus and C-terminus assumed)
HLA-A01.01; [4]
  IC50: 15500 nM

## CSCC[C@H](NC(=O)[C@H](CCC(=O)O)NC(=O)[C@H](CCCNC(=N)N)NC(=O)[C@H](CC(C)C)NC(=O)[C@H](Cc1ccc(O)cc1)NC(=O)[C@H](CC(N)=O)NC(=O)[C@H](CC(C)C)NC(=O)[C@H](CC(C)C)NC(=O)[C@@H](N)CO)C(=O)O
HLA-A02.01 [1]; BTK C481S peptide, HLA Allele A02.01, read-out: Affinity
  IC50: 67.7 nM
HLA-A02.01 [1]; [5]
  IC50: 87 nM
HLA-B07.02; BTK C481S peptide, HLA Allele B07.02, read-out: Affinity
  IC50: 866 nM
HLA-A02.01 [2]; BTK C481S peptide, HLA Allele A02.01
  Stability (half-life (hr.)): 182.6 min
HLA-A02.01 [2]
  Stability (T1/2 (h)): 3 h

## CC(C)C[C@H](NC(=O)[C@H](Cc1ccccc1)NC(=O)[C@H](CO)NC(=O)[C@@H](N)CC(C)C)C(=O)N[C@@H](CO)C(=O)N[C@@H](CO)C(=O)N[C@@H](Cc1c[nH]c2ccccc12)C(=O)N[C@@H](CC(=O)O)C(=O)N[C@@H](Cc1ccc(O)cc1)C(=O)O (H-LSFLSSWDY-OH; N-terminus and C-terminus assumed)
HLA-A01.01; [4]
  IC50: 52.9 nM

## CC(C)[C@H](NC(=O)[C@H](CCC(=O)O)NC(=O)[C@H](CC(N)=O)NC(=O)[C@H](CO)NC(=O)CN)C(=O)N[C@H](C(=O)N[C@H](C(=O)N[C@@H](CCCNC(=N)N)C(=O)N[C@@H](Cc1ccc(O)cc1)C(=O)O)[C@@H](C)O)[C@@H](C)O (H-GSNEVTTRY-OH; N-terminus and C-terminus assumed)
HLA-A01.01; [4]
  IC50: 606 nM

## C[C@H](NC(=O)[C@H](CC(N)=O)NC(=O)[C@@H](NC(=O)[C@@H](NC(=O)[C@@H](N)Cc1ccc(O)cc1)[C@@H](C)O)[C@@H](C)O)C(=O)N[C@@H](Cc1ccccc1)C(=O)N[C@@H](CO)C(=O)NCC(=O)N[C@@H](CCC(=O)O)C(=O)N[C@@H](Cc1ccc(O)cc1)C(=O)O (H-YTTNAFSGEY-OH; N-terminus and C-terminus assumed)
HLA-A01.01; [4]
  IC50: 10.5 nM

## CC[C@H](C)[C@H](NC(=O)[C@H](CC(=O)O)NC(=O)[C@H](Cc1ccccc1)NC(=O)[C@H](CC(C)C)NC(=O)[C@@H](NC(=O)[C@H](CCC(=O)O)NC(=O)[C@@H](NC(=O)[C@H](CCSC)NC(=O)[C@@H](N)Cc1c[nH]c2ccccc12)[C@@H](C)O)[C@@H](C)O)C(=O)N[C@H](C(=O)O)C(C)C (H-WMTETLFDIV-OH; N-terminus and C-terminus assumed)
HLA-A01.01; [4]
  IC50: 14400 nM
HLA-A02.01 [1]; [5]
  IC50: 40 nM
HLA-A02.01 [2]
  Stability (T1/2 (h)): 0.4 h

## CC[C@H](C)[C@H](N)C(=O)N[C@@H](CC(C)C)C(=O)N[C@@H](CC(=O)O)C(=O)N[C@H](C(=O)N[C@@H](C)C(=O)NCC(=O)N[C@@H](CCCNC(=N)N)C(=O)N[C@@H](CCC(=O)O)C(=O)N[C@@H](CCC(=O)O)C(=O)N[C@@H](Cc1ccc(O)cc1)C(=O)O)[C@@H](C)O (H-ILDTAGREEY-OH; N-terminus and C-terminus assumed)
HLA-A01.01; [3]
  IC50: 7 nM

## CC[C@H](C)[C@H](N)C(=O)N[C@@H](CC(C)C)C(=O)N[C@@H](CC(=O)O)C(=O)N[C@H](C(=O)N[C@@H](C)C(=O)NCC(=O)N[C@@H](CC(C)C)C(=O)N[C@@H](CCC(=O)O)C(=O)N[C@@H](CCC(=O)O)C(=O)N[C@@H](Cc1ccc(O)cc1)C(=O)O)[C@@H](C)O (H-ILDTAGLEEY-OH; N-terminus and C-terminus assumed)
HLA-A01.01; [3]
  IC50: 8.6 nM

## CSCC[C@H](NC(=O)[C@H](CC(C)C)NC(=O)[C@H](CCC(N)=O)NC(=O)[C@@H](N)CCSC)C(=O)N1CCC[C@H]1C(=O)N[C@@H](Cc1ccccc1)C(=O)NCC(=O)N[C@@H](CS)C(=O)N[C@@H](CC(C)C)C(=O)O
HLA-A02.01 [1]; EGFR T790M peptides, HLA allele A02.01, read-out: Affinity
  Kd: 116 nM
HLA-A02.01 [1]; [5]
  IC50: 166 nM
HLA-B07.02; EGFR T790M peptides, HLA allele B07.02
  Kd: 1590 nM
HLA-A02.01 [2]; EGFR T790M peptides, HLA allele A02.01
  Stability (half-life (hr.)): 22.1 min
HLA-A02.01 [2]
  Stability (T1/2 (h)): 0.4 h

## CC[C@H](C)[C@H](NC(=O)[C@H](CCCCN)NC(=O)[C@H](Cc1ccc(O)cc1)NC(=O)[C@@H](NC(=O)[C@@H](NC(=O)[C@H](CC(=O)O)NC(=O)[C@H](CO)NC(=O)[C@H](CCSC)NC(=O)[C@@H](N)C(C)C)[C@@H](C)O)[C@@H](C)O)C(=O)N[C@@H](Cc1ccc(O)cc1)C(=O)O (H-VMSDTTYKIY-OH; N-terminus and C-terminus assumed)
HLA-A01.01
  IC50: 376 nM

## C[C@H](NC(=O)[C@H](CC(N)=O)NC(=O)[C@@H](NC(=O)[C@@H](N)[C@@H](C)O)[C@@H](C)O)C(=O)N[C@@H](Cc1ccccc1)C(=O)N[C@@H](CO)C(=O)NCC(=O)N[C@@H](CCC(=O)O)C(=O)N[C@@H](Cc1ccc(O)cc1)C(=O)O (H-TTNAFSGEY-OH; N-terminus and C-terminus assumed)
HLA-A01.01; [4]
  IC50: 4.4 nM

## CC(C)C[C@H](NC(=O)[C@@H]1CCCN1C(=O)[C@@H]1CCCN1C(=O)[C@@H](NC(=O)[C@@H](NC(=O)[C@H](Cc1c[nH]c2ccccc12)NC(=O)[C@H](CC(C)C)NC(=O)[C@@H](NC(=O)[C@@H]1CCCN1C(=O)[C@@H](N)CCC(N)=O)C(C)C)[C@@H](C)O)[C@@H](C)O)C(=O)O (H-QPVLWTTPPL-OH; N-terminus and C-terminus assumed)
HLA-B07.02; [6]
  IC50: 109 nM

## CC[C@H](C)[C@H](NC(=O)[C@H](CC(N)=O)NC(=O)[C@@H](NC(=O)[C@H](CC(=O)O)NC(=O)[C@H](CCCCN)NC(=O)[C@@H]1CCCN1C(=O)[C@@H](N)CCSC)C(C)C)C(=O)N[C@@H](CCC(N)=O)C(=O)N[C@H](C(=O)O)C(C)C
HLA-B07.02; [6]
  IC50: 12.5 nM

## C[C@H](NC(=O)[C@H](C)NC(=O)[C@H](CCCNC(=N)N)NC(=O)[C@@H]1CCCN1C(=O)[C@@H]1CCCN1C(=O)[C@H](CCCNC(=N)N)NC(=O)[C@@H]1CCCN1C(=O)[C@@H]1CCCN1)C(=O)N[C@@H](CS)C(=O)O (H-PPRPPRAAC-OH; N-terminus and C-terminus assumed)
HLA-B07.02; [6]
  IC50: 32.8 nM

## CC(C)[C@H](NC(=O)[C@H](C)NC(=O)[C@@H]1CCCN1C(=O)[C@@H](NC(=O)[C@H](CCCNC(=N)N)NC(=O)[C@H](C)NC(=O)[C@@H]1CCCN1C(=O)[C@@H]1CCCN1C(=O)CN)C(C)C)C(=O)O (H-GPPARVPAV-OH; N-terminus and C-terminus assumed)
HLA-B07.02
  IC50: 221 nM

## CC(C)C[C@H](NC(=O)[C@H](C)NC(=O)[C@H](CC(C)C)NC(=O)[C@H](Cc1c[nH]cn1)NC(=O)[C@@H]1CCCN1C(=O)[C@H](CCC(=O)O)NC(=O)[C@@H]1CCCN1C(=O)[C@H](CC(C)C)NC(=O)[C@@H](NC(=O)[C@@H](N)Cc1c[nH]cn1)C(C)C)C(=O)O [HVLPEPHLAL] (H-HVLPEPHLAL-OH; N-terminus and C-terminus assumed)
HLA-B07.02; [6]
  IC50: 1330 nM

## CC[C@H](C)[C@H](NC(=O)[C@@H]1CCCN1C(=O)[C@H](CC(C)C)NC(=O)[C@H](Cc1ccccc1)NC(=O)[C@H](CC(C)C)NC(=O)[C@H](CO)NC(=O)[C@H](CC(=O)O)NC(=O)[C@@H](NC(=O)[C@H](CC(C)C)NC(=O)[C@@H](N)CCSC)[C@@H](C)O)C(=O)O
HLA-A01.01; [4]
  IC50: 7670 nM
HLA-A02.01 [2]
  Stability (T1/2 (h)): 1 h

## CC[C@H](C)[C@H](NC(=O)[C@H](CCCCN)NC(=O)[C@H](Cc1ccc(O)cc1)NC(=O)[C@@H](NC(=O)[C@@H](NC(=O)[C@H](CC(=O)O)NC(=O)[C@H](CO)NC(=O)[C@@H](N)CCSC)[C@@H](C)O)[C@@H](C)O)C(=O)N[C@@H](Cc1ccc(O)cc1)C(=O)O (H-MSDTTYKIY-OH; N-terminus and C-terminus assumed)
HLA-A01.01
  IC50: 10.2 nM

## CC[C@H](C)[C@H](N)C(=O)N[C@@H](CC(C)C)C(=O)N[C@@H](CC(=O)O)C(=O)N[C@H](C(=O)N[C@@H](C)C(=O)NCC(=O)N[C@@H](Cc1c[nH]cn1)C(=O)N[C@@H](CCC(=O)O)C(=O)N[C@@H](CCC(=O)O)C(=O)N[C@@H](Cc1ccc(O)cc1)C(=O)O)[C@@H](C)O (H-ILDTAGHEEY-OH; N-terminus and C-terminus assumed)
HLA-A01.01; [3]
  IC50: 64.2 nM

## CC(C)C[C@H](NC(=O)[C@H](CC(=O)O)NC(=O)[C@H](Cc1ccccc1)NC(=O)[C@@H]1CCCN1C(=O)[C@@H](NC(=O)[C@H](C)NC(=O)[C@@H]1CCCN1C(=O)[C@@H](N)C(C)C)C(C)C)C(=O)N[C@@H](Cc1c[nH]cn1)C(=O)N[C@@H](Cc1ccccc1)C(=O)O (H-VPAVPFDLHF-OH; N-terminus and C-terminus assumed)
HLA-B07.02; [6]
  IC50: 2110 nM

## C[C@H](NC(=O)[C@H](C)NC(=O)[C@H](CCCNC(=N)N)NC(=O)[C@@H]1CCCN1C(=O)[C@@H]1CCCN1C(=O)[C@H](CCCNC(=N)N)NC(=O)[C@@H]1CCCN1C(=O)[C@@H]1CCCN1C(=O)CN)C(=O)N[C@@H](CS)C(=O)O (H-GPPRPPRAAC-OH; N-terminus and C-terminus assumed)
HLA-B07.02; [6]
  IC50: 48.6 nM
